Assay results taken from paper PMC9967275, “Screening the Pathogen Box to Discover and Characterize New Cruzain and TbrCatL Inhibitors” (Pathogens, 2023).

Columns and labels:
cruzain = cruzain (Trypanosoma cruzi, UniProt P25779); experiment: biochemical; details: for Cruzain 0’ Inhibition / Cruzain 10’ Inhibition: sheet "Screening results"
Method in brief: (§1)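 Recombinant enzymes assayed by Z-Phe-Arg-AMC cleavage at 25 °C, fluorescence 340/440 nm over 5–7 min, with 10 min or no enzyme–compound preincubation.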

TbrCatL = target: T1, TbrCatL (Trypanosoma brucei rhodesiense, UniProt Q95PM0); experiment: TbrCatL enzymatic inhibition assay (cleavage of fluorogenic substrate Z-FR-AMC); type: biochemical; details: for TbrCatL 0’ Inhibition / TbrCatL 10’ Inhibition: sheet "Screening results"
T1 construct: Conor Caffrey (University of California San Diego)
Method in brief: as §1

[1] = 0’ (pre-incubation time), Pathogen Box screening results
[2] = 10’ (pre-incubation time), Pathogen Box screening results
[3] = 0’ (no pre-incubation), sheet Screening results
[4] = 10’ (pre-incubation), sheet Screening results
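Further: at 5 µM compound concentration.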

cruzain, sequence (P25779 123-337 limits assumed): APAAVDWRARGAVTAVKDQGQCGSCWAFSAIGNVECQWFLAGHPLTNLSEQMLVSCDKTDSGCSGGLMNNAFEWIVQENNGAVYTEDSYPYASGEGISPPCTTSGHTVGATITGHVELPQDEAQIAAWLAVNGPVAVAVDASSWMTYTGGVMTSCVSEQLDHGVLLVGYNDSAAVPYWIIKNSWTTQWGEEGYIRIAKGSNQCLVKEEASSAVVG
T1 sequence (Q95PM0 entry or part of it): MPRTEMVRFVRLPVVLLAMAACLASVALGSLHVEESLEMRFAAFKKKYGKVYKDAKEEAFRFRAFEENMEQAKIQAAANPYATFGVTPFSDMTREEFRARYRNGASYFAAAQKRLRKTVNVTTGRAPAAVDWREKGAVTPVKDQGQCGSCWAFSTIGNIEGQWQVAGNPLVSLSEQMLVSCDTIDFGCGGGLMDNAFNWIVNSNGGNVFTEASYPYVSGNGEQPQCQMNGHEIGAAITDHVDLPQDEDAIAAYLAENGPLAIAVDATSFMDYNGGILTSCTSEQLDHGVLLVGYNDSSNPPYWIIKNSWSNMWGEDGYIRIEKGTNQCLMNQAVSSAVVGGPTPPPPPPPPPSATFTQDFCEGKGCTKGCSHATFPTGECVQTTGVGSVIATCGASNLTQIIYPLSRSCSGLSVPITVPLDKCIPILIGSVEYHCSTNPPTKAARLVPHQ

Structure (SMILES)	Cruzain 0’ Inhibition (cruzain; 0’ (pre-incubation time)) [%]	Cruzain 10’ Inhibition (cruzain; 10’ (pre-incubation time)) [%]	TbrCatL 0’ Inhibition (TbrCatL; 0’ (pre-incubation time)) [%]	TbrCatL 10’ Inhibition (TbrCatL; 10’ (pre-incubation time)) [%]	other results
COc1cccc(-c2cc3c(Nc4cccnc4)nccc3[nH]2)c1 [MMV392832]					Cruzain Inhibition 0’ (cruzain; [1]): 8.5%; Cruzain Inhibition 10’ (cruzain; [2]): -3.6%; TbrCatL Inhibition 0’ (TbrCatL; [1]): 6%; TbrCatL Inhibition 10’ (TbrCatL; [2]): -6.4%
Cc1cc(NCC(C)C)c2[nH]nc(-c3ccccc3)c2n1 [MMV021375]	18	23	17	20	
COCC(C)NC(=O)CSc1ncnc2sc(-c3ccccc3)cc12 (stereo not shown) [MMV676536]					Cruzain Inhibition 0’ (cruzain; [3]): 18%; Cruzain Inhibition 10’ (cruzain; [4]): 16%; TbrCatL Inhibition 0’ (TbrCatL; [3]): 13%; TbrCatL Inhibition 10’ (TbrCatL; [4]): 33%
COc1cc(C2=NCCN2)ccc1-n1cc(-c2cccc(C3=NCCN3)c2)nn1 [MMV688474]	2.4	13	10	30	
c1ccc(Oc2ccc(-c3cc(N4CCNCC4)[nH]n3)cc2)cc1 [MMV687706]	2.4	4	-6	23	
Clc1ccc(CN2CCN(C3=NCCN3)CC2)cc1Cl [MMV689060]					Cruzain Inhibition 0’ (cruzain; [3]): -3%; Cruzain Inhibition 10’ (cruzain; [4]): -0.1%; TbrCatL Inhibition 0’ (TbrCatL; [3]): -5%; TbrCatL Inhibition 10’ (TbrCatL; [4]): 2%
CC(C)n1ncc2c(C(=O)NCC(c3cccs3)N3CCOCC3)cc(-c3ccccc3)nc21 (stereo not shown) [MMV676406]					Cruzain Inhibition 0’ (cruzain; [3]): 6%; Cruzain Inhibition 10’ (cruzain; [4]): 6%; TbrCatL Inhibition 0’ (TbrCatL; [3]): 17%; TbrCatL Inhibition 10’ (TbrCatL; [4]): 15%
O=C(Nc1nnc(-c2ccc(Cl)cc2)o1)c1cccc(C(F)(F)F)c1 [MMV102872]					Cruzain Inhibition 0’ (cruzain; [3]): -1.6%; Cruzain Inhibition 10’ (cruzain; [4]): -10%; TbrCatL Inhibition 0’ (TbrCatL; [3]): 0.5%; TbrCatL Inhibition 10’ (TbrCatL; [4]): -16%
CC(C)(C)OC(=O)N1CCN(c2cc(-c3ccc(Oc4ccccc4)cc3)n[nH]2)CC1 [MMV676057]	-1.5	-3.4	-2.3	-12	
CCc1ccc(S(=O)(=O)Nc2cc(CN3CCN(CCC(C)C)CC3)ccc2C)cc1 [MMV688124]	-1.8	3	-3.3	1	
CNC(=O)CNc1nc(-c2ccccn2)nc2scc(-c3ccccc3)c12 [MMV1029203]	-6	28	-10	-7	
CCc1nc2ccc(C(=O)NCc3ccc4c(c3)OCO4)cn2c1N(C)Cc1cccs1 [MMV407539]	-4	-3	-10	-3.2	
COc1ccc(N(CCc2cccc(C)n2)C(=O)C2CCCCC2)cc1 [MMV675996]	-3	-2.2	-13	-10	
OCCc1ccc(Nc2nccc(-c3nnc4ccccn34)n2)cc1 [MMV028694]	7	14	8	13	
O=C(Nc1nnc(-c2ccc(Cl)s2)o1)c1ccc(Cl)s1 [MMV676501]					Cruzain Inhibition 0’ (cruzain; [3]): -8%; Cruzain Inhibition 10’ (cruzain; [4]): -16%; TbrCatL Inhibition 0’ (TbrCatL; [3]): -3.6%; TbrCatL Inhibition 10’ (TbrCatL; [4]): -11%
Cc1ccc2nc(C)c(-c3ccn(Cc4ccccc4)n3)n2c1 [MMV688939]					Cruzain Inhibition 0’ (cruzain; [1]): -1.4%; Cruzain Inhibition 10’ (cruzain; [2]): -4%; TbrCatL Inhibition 0’ (TbrCatL; [1]): -0.4%; TbrCatL Inhibition 10’ (TbrCatL; [2]): -9%
NS(=O)(=O)c1cncc(-c2ccc3nccc(-c4cn[nH]c4)c3n2)c1 [MMV024101]	7	26	6	34	
O=C1O[C@@H](CO)CN1c1cc(F)c(C2=CCN(Cc3ccccc3)CC2)c(F)c1 [MMV687729]	-2	6	-0.7	-6.5	
COc1ccc(Cn2cnc3c(-c4ccco4)nc(Cl)nc32)cc1 [MMV687170]	6	7	15	3.4	
